The test system of one assay is B. napus mutant FM 202. Format: in vivo, Brassica napus. The conditions noted are these: spray at BBCH 12-13 with Mero 1 l/ha, visual scoring 14 days after application, 0%=no damage, 100%=all plants dead. Here is the method: (§1) The individual components herbicide and surfactant with regard to type and application rate as stated in table 1 were added with stirring to a water application rate of 300 l/ha so that a homogeneous spray mixture was formed. The adjuvant Mero® (Bayer CropScience AG: active ingredient is 81% rapeseed oil methyl ester) was always added to the spray liquids with a use rate of one l/ha.
(§2) Seeds of B. napus were sown in a sandy loam soil and placed in a climate chamber in a greenhouse under good growth conditions (16 h light, temperature day 14° C., night: 8° C.). The plants (10 per experiment) were grown up to growth stage of BBCH 12 to BBCH 13. […] After the treatment, the plants were returned to the climate chamber.
(§3) Visual scoring was carried out using a percentage scale of 0%=no damage to 100%=all plants dead.

Assay [1] deals with B. napus wild type variety SR002201. Briefly: Greenhouse herbicide injury, visual scoring, wild type variety. In kind it is in vivo, Brassica napus. The conditions noted are these: spray at BBCH 12-13 with Mero 1 l/ha, visual scoring 14 days after application, 0%=no damage, 100%=all plants dead. How it is done:
as §1, §2, §3

Assay [2] has as its target T1, A. thaliana W574L-mutant ALS (Arabidopsis thaliana, UniProt P17597, E575Q/W574L).
T1 construct: vector-encoded fusion of pET-32a(+) (Trx/His/S-tag by own knowledge of the vector); made in house; host or cells: Escherichia coli AD494
In kind it is biochemical. The conditions noted are these: negative logarithm of the molar concentration inhibiting the enzyme activity by 50%; crude extract of E. coli expressing A. thaliana W574L ALS; 75 min, 30° C. How it is done:
(§4) Bacteria were grown at 37° C. in LB-medium containing 100 mg/l carbenicillin and 25 mg/l canamycin, induced with 1 mM isopropyl-β-D-thiogalactopyranoside at an OD600 of 0.6, cultivated for 16 hours at 18° C. and harvested by centrifugation. Bacterial pellets were resuspended in 100 mM sodium phosphate buffer pH 7.0 containing 0.1 mM thiamine-pyrophosphate, 1 mM MgCl2, and 1 μM FAD at a concentration of 1 gram wet weight per 25 ml of buffer and disrupted by sonification. The crude protein extract obtained after centrifugation was used for ALS activity measurements.
(§5) Assays were initiated by adding enzyme and terminated after 75 min incubation at 30° C. by the addition of 40 μl 0.5 M H2SO4.

Assay [3] has as its target T2, A. thaliana S653N-mutant ALS (Arabidopsis thaliana, UniProt P17597, E575Q/S653N).
T2 construct: vector-encoded fusion of pET-32a(+) (Trx/His/S-tag by own knowledge of the vector); made in house; host or cells: Escherichia coli AD494
Briefly: biochemical. The following applies: negative logarithm of the molar concentration inhibiting the enzyme activity by 50%, crude extract of E. coli expressing A. thaliana S653N ALS, 75 min, 30° C.; for IC50: read-out: ALS PI50 S653N (converted). Here is the method:
as §4, §5

Assay [4] addresses T3, A. thaliana A205V-mutant ALS (Arabidopsis thaliana, UniProt P17597, A205V/E575Q).
T3 construct: vector-encoded fusion of pET-32a(+) (Trx/His/S-tag by own knowledge of the vector); made in house; host or cells: Escherichia coli AD494
Briefly: biochemical. The following applies: negative logarithm of the molar concentration inhibiting the enzyme activity by 50%, crude extract of E. coli expressing A. thaliana A205V ALS, 75 min, 30° C.; for IC50: read-out: ALS PI50 A205V (converted). How it is done:
as §4, §5

Assay [5] has as its target T4, A. thaliana wild-type ALS (Arabidopsis thaliana, UniProt P17597, E575Q).
T4 construct: vector-encoded fusion of pET-32a(+) (Trx/His/S-tag by own knowledge of the vector); made in house; host or cells: Escherichia coli AD494
As to the kind of experiment: biochemical. The conditions noted are these: negative logarithm of the molar concentration inhibiting the enzyme activity by 50%, crude extract of E. coli expressing A. thaliana wild-type ALS, 75 min, 30° C.; for IC50: read-out: ALS PI50 WT (converted). Here is the method: as §4, §5

Molecules are shown by their SMILES. Read-outs that look alike come from different tables or passages of the source.

T4 sequence (P17597 56-670 E575Q): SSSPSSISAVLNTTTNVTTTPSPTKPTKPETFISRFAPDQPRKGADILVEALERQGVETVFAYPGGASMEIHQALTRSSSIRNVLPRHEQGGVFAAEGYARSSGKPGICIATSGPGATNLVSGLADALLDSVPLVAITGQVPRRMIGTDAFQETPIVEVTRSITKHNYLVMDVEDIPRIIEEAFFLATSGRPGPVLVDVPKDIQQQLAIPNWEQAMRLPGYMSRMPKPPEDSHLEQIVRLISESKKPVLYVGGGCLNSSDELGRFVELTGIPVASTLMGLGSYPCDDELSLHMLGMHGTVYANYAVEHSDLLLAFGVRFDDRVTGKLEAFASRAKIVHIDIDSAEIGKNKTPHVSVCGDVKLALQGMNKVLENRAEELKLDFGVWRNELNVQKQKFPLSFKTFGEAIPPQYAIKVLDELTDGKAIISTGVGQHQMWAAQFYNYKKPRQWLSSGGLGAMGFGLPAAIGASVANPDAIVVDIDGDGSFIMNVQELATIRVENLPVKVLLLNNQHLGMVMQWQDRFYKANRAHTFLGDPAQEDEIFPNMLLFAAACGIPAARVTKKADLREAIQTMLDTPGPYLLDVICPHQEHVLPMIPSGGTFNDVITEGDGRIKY
T2 sequence (P17597 56-670 E575Q/S653N): as the sequence (P17597 56-670 E575Q) above, with S598N counted along it
T3 sequence (P17597 56-670 A205V/E575Q): as the sequence (P17597 56-670 E575Q) above, with A150V counted along it
T1 sequence (P17597 56-670 W574L/E575Q): as the sequence (P17597 56-670 E575Q) above, with W519L counted along it

Regarding `COC(=O)c1ccc(I)cc1S(=O)(=O)[N-]C(=O)Nc1nc(C)nc(OC)n1.[Na+]` [Iodosulfuron-methy-sodium, iodosulfuron-methyl-sodium], in the assay on B. napus mutant FM 202 (7 g a.i./ha), the “Herbicide injury on BRSNS [%] FM 202” value was determined as 0%. In addition, the “Herbicide injury on BRSNS [%] SR002201” value in assay [1] (7 g a.i./ha) is 95%.
As to `COc1ncc(F)c2nc(S(=O)(=O)Nc3c(F)cccc3F)nn12` [Florasulam, florasulam], in assay [2], the “ALS PI50 W574L” value was 4.6. The “ALS PI50 S653N” value in assay [3] worked out at 7.6. Further, the “ALS PI50 A205V” value in assay [4] was 6.1. The “ALS PI50 WT” value in assay [5] is 7.9.
As to `CCS(=O)(=O)c1cccnc1S(=O)(=O)NC(=O)Nc1nc(OC)cc(OC)n1` [Rimsulfuron, rimsulfuron], the IC50 in assay [3] is 0.00251 µM; in assay [4], 0.158 µM; in assay [5] it was 0.01 µM.
For the molecule `COc1cc(OC)nc(NC(=O)NS(=O)(=O)c2cc(NC=O)ccc2C(=O)N(C)C)n1` [Foramsulfuron, foramsulfuron], the IC50 in assay [4] is 0.501 µM.
Consider `COCc1cnc(C2=NC(C)(C(C)C)C(=O)N2)c(C(=O)O)c1` (stereo not shown) [Imazamox, imazamox], for which the “Herbicide injury on BRSNS [%] FM 202” value in the assay with B. napus mutant FM 202 (40 g a.i./ha) was found to be 0%. The “Herbicide injury on BRSNS [%] SR002201” value in assay [1] (40 g a.i./ha) came out at 93%. The IC50 in assay [4] was greater than 100 µM.
On to `COc1cc(OC)n2nc(S(=O)(=O)Nc3c(Cl)ccc(C)c3Cl)nc2n1` [Metosulam, metosulam], for which the IC50 in assay [3] was 0.0398 µM; in assay [4], 0.794 µM; in assay [5] it was 0.00316 µM.
Take `CCS(=O)(=O)c1nc2ccccn2c1S(=O)(=O)NC(=O)Nc1nc(OC)cc(OC)n1` [Sulfosulfuron, sulfosulfuron]: the results for the IC50 in assay [3], in assay [4] and in assay [5] were 0.0794 µM, 1.26 µM and 0.0158 µM, respectively.
As for `COc1cc(OC)nc(NC(=O)NS(=O)(=O)c2ncccc2C(F)(F)F)n1` [Flazasulfuron, flazasulfuron], the IC50 is 0.0158 µM in assay [4] and 0.00251 µM in assay [5].
Turning to `COC(=O)c1ccccc1S(=O)(=O)NC(=O)N(C)c1nc(C)nc(OC)n1`, the “Herbicide injury on BRSNS [%] FM 202” value with B. napus mutant FM 202 (30 g a.i./ha) worked out at 3%. Besides, the “Herbicide injury on BRSNS [%] SR002201” value in assay [1] (30 g a.i./ha) turned out to be 95%.
In the case of `COC(=O)c1ccc(CNS(C)(=O)=O)cc1S(=O)(=O)NC(=O)Nc1nc(OC)cc(OC)n1` [Mesosulfuron-methyl, mesosulfuron-methyl], in the assay with B. napus mutant FM 202 (15 g a.i./ha), the “Herbicide injury on BRSNS [%] FM 202” value stood at 0%. For the same molecule, the “Herbicide injury on BRSNS [%] SR002201” value in assay [1] (15 g a.i./ha) is reported as 90%.
Consider `COc1cc(OC)nc(NC(=O)NS(=O)(=O)N(C)S(C)(=O)=O)n1` [Amidosulfuron, amidosulfuron], for which the IC50 in assay [3] is 0.00126 µM; in assay [4], 12.6 µM.
`COC(=O)c1csc(C)c1S(=O)(=O)NC(=O)n1nc(OC)n(C)c1=O` [Thiencarbazone-methyl, thiencarbazone-methyl]: the “Herbicide injury on BRSNS [%] FM 202” value with B. napus mutant FM 202 (20 g a.i./ha) stood at 0%. Further, the “Herbicide injury on BRSNS [%] SR002201” value in assay [1] (20 g a.i./ha) is recorded as 90%.
With `CCOc1ccccc1OS(=O)(=O)NC(=O)Nc1nc(OC)cc(OC)n1` [Ethoxysulfuron, ethoxysulfuron], the “Herbicide injury on BRSNS [%] FM 202” value in the assay on B. napus mutant FM 202 (60 g a.i./ha) is 0%. Moreover, the “Herbicide injury on BRSNS [%] SR002201” value in assay [1] (60 g a.i./ha) turned out to be 98%.
For `COC(=O)c1ccccc1S(=O)(=O)NC(=O)Nc1nc(C)nc(OC)n1` [Metsulfuron-methyl, metsulfuron-methyl], the “Herbicide injury on BRSNS [%] FM 202” value with B. napus mutant FM 202 (8 g a.i./ha) stood at 0%. The “Herbicide injury on BRSNS [%] SR002201” value in assay [1] (8 g a.i./ha) is reported as 93%.
On to `COc1nc(C)nc(NC(=O)NS(=O)(=O)c2ccccc2Cl)n1` [Chlorsulfuron, chlorsulfuron], for which the “Herbicide injury on BRSNS [%] FM 202” value in the assay with B. napus mutant FM 202 (9 g a.i./ha) was determined as 0%. Also, the “Herbicide injury on BRSNS [%] SR002201” value in assay [1] (9 g a.i./ha) worked out at 97%.
As for `COc1cc(OC)nc(Oc2cccc(Oc3nc(OC)cc(OC)n3)c2C(=O)O)n1` [Bispyribac-sodium, bispyribac-sodium], the IC50 in assay [3] was 0.158 µM; in assay [4], 0.1 µM; in assay [5], 0.0158 µM.
The corresponding values for `COC(=O)c1sccc1S(=O)(=O)NC(=O)Nc1nc(C)nc(OC)n1` [Thifensulfuron-Methyl, thifensulfuron-methyl] are 0.158 µM, 0.631 µM and 0.0316 µM.
With `COc1cc(OC)nc(NC(=O)NS(=O)(=O)c2ncccc2C(=O)N(C)C)n1` [Nicosulfuron, nicosulfuron], the values for the IC50 in assay [3], in assay [4] and in assay [5] were 1.58 µM, 1 µM and 0.0631 µM, respectively.
`COC(=O)c1cccc(C)c1S(=O)(=O)NC(=O)Nc1nc(OCC(F)(F)F)nc(N(C)C)n1` [Triflusulfuron, triflusulfuron-methyl]: the “Herbicide injury on BRSNS [%] FM 202” value with B. napus mutant FM 202 (20 g a.i./ha) was 0%. Besides, the “Herbicide injury on BRSNS [%] SR002201” value in assay [1] (20 g a.i./ha) is 65%.
